Assay results from the NIST ThermoML archive (doi:10.1016/j.jct.2016.03.008).

Experiment: mn = molality of the nth substance listed, in mol/kg
Conditions: 101 kPa, Liquid; for viscosity: Capillary tube (Ostwald / Ubbelohde) method; for mass density: Vibrating tube method

C[N+](C)(C)CC(=O)O.[Cl-] [betaine hydrochloride] + O
Conditions	mass density, 298.15 K [kg/m3]	mass density, 308.15 K [kg/m3]	mass density, 318.15 K [kg/m3]	viscosity, 298.15 K [mPa·s]	viscosity, 308.15 K [mPa·s]	viscosity, 318.15 K [mPa·s]
m1 = 0.006	997.26	994.25	990.47	0.8929	0.7208	0.598
m1 = 0.0134	997.52	994.51	990.73	0.8965	0.7244	0.6005
m1 = 0.0267	997.98	994.97	991.19	0.9009	0.7288	0.6054
m1 = 0.0401	998.43	995.42	991.65	0.9064	0.7331	0.6104
m1 = 0.0536	998.87	995.87	992.1	0.9124	0.7381	0.6153
m1 = 0.0671	999.31	996.31	992.54	0.9181	0.7427	0.62

O=c1cc[nH]c(=O)[nH]1 [2,4(1H,3H)-pyrimidinedione] + O
Conditions	mass density, m1 = 0.005 [kg/m3]	mass density, m1 = 0.01 [kg/m3]	mass density, m1 = 0.015 [kg/m3]	mass density, m1 = 0.02 [kg/m3]	viscosity, m1 = 0.005 [mPa·s]	viscosity, m1 = 0.01 [mPa·s]	viscosity, m1 = 0.015 [mPa·s]	viscosity, m1 = 0.02 [mPa·s]
298.15 K	997.23	997.44	997.63	997.82	0.8929	0.8953	0.8977	0.9002
308.15 K	994.25	994.44	994.63	994.82	0.722	0.7232	0.7245	0.727
318.15 K	990.42	990.61	990.79	990.98	0.598	0.6004	0.6017	0.6041
